According to patent US8906925B2, “Pyrido[4,3-B]indoles containing rigid moieties” (Medivation Technologies, Inc., priority 2008, dated 2014):

Assays:
mice (e.g., C57Bl/6J) = test: Amphetamine-induced hyperactivity, open field test; format: in vivo, mouse; conditions: amphetamine (4 mg/kg), 90 min. test
Procedure: Male mice (various strains e.g., C57Bl/6J) from appropriate supplier (for example Jackson Laboratories, Bar Harbor, Me.) were used. Mice typically were received at 6-weeks of age. Mice were acclimated to the colony room for at least two weeks prior to testing. During the period of acclimation, mice were examined on a regular basis, handled, and weighed to assure adequate health and suitability and maintained on a 12 h/12 h light/dark cycle. The room temperature was maintained between 20 and 23° C. with a relative humidity maintained between 30% and 70%. Food and water were provided ad libitum for the duration of the study. In each test, animals were randomly assigned between treatment groups.
The open field test (OF) was used to assess motor activity. […] Horizontal activity (distance traveled) and vertical activity (rearing) were measured from consecutive beam breaks.
On the day of testing, animals were brought to the experimental room for at least 1 h acclimation prior to start of treatment. […] The time of administration of test compound to each animal was recorded. Baseline activity was recorded for […]. following which mice received amphetamine (4 mg/kg) or water and were placed back in the OF chambers for a 60-min. session. […]
Data were analyzed by analysis of variance (ANOVA) followed by post-hoc comparisons with Fisher Tests when appropriate. […]

[1] = target: T1, human recombinant serotonin 5-HT1B receptor (Homo sapiens, UniProt P28222); test: 5-HT1B radioligand binding competition assay ([3H]5-CT, CHO-K1 membranes); conditions: 5 μM, in duplicate, average
T1 construct: expressed in transfected cells; host or cells: CHO-K1 cell line, membrane extracts
Procedure: To determine the binding activity at the human recombinant serotonin 5-HT1B receptor of compounds of the invention, CHO-K1 cell line expressing the human 5-HT1B recombinant receptor was amplified to prepare membranes used for the radioligand binding assay throughout the study. Radioligand binding competition on 5-HT1B was performed by adding successively in the wells of a 96 well plate (Master Block, Greiner, 786201). […] The plate was incubated 60 min at 25° C. in a water bath and then filtered over GF/B filters (Perkin Elmer, 6005177, presoaked in 0.5% PE1 for 2 h at room temperature) with a Filtration unit (Perkin Elmer). The filters were washed 3× with 0.5 mL of ice-cold washing buffer (50 mM Tris pH 7.4). 50 μL Microscint 20 (Packard) was added and the plate was incubated 15 min on an orbital shaker and then counted with a TopCount™ for 1 min/well.
The reference value thus obtained for the test was compared to a historical value obtained from the same receptor and used to validate the experimental session. […] For replicate determinations, the maximum variability tolerated in the test was of +/−20% around the average of the replicates.
Compounds were tested for binding activity in the radioligand binding competition assay on human 5-HT1B receptor, at one concentration […], in duplicate. Dose-response data from test compounds were analyzed with XLfit (IDBS) software using nonlinear regression applied to a sigmoidal dose-response model.
Dose-response data was analyzed with XLfit (IDBS) software using non-linear regression applied to a sigmoidal dose-response model.

T1 sequence (P28222 whole entry): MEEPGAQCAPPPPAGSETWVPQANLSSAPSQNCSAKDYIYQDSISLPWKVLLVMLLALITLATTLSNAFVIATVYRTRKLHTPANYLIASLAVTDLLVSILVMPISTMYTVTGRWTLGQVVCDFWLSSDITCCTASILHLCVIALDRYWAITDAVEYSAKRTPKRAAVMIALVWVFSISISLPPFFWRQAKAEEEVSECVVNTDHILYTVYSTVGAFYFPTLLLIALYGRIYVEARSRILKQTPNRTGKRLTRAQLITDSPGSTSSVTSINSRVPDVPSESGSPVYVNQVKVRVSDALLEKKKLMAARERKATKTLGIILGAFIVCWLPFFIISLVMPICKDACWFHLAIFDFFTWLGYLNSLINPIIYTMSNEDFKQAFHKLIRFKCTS

Row | SMILES | Total Distance Traveled (center+periphery), ANOVA (mice (e.g., C57Bl/6J)) | Total Rearing (center+periphery), ANOVA (mice (e.g., C57Bl/6J)) | 5-HT1B (5 μM) % Binding relative to bound radioligand [1]
1 | C/C(=C\n1c2c(c3cc(Cl)ccc31)CN(C)CC2)c1ccc(F)cc1 [Compound 83, (E)-8-chloro-5-(2-(4-fluorophenyl)prop-1-enyl)-2,3,4,5-tetrahydro-2-methyl-1H-pyrido[4,3-b]indole] | significant treatment effect | significant treatment effect | –
2 | COc1ccc(C(C)(O)Cn2c3c(c4cc(C)ccc42)CN(C)CC3)cc1 (stereo not drawn) [Compound 174, 1-(2,8-dimethyl-3,4-dihydro-1H-pyrido[4,3-b]indol-5(2H)-yl)-2-(4-methoxyphenyl)propan-2-ol] | – | – | 16%
